Experiments:
MCF7 = test: cells; details: Homo sapiens, MCF7, 72 h
Description: Antiproliferative activity against human MCF7 cells incubated for 72 hrs by MTT assay

[1] = molecular target: Serine/threonine-protein kinase mTOR (Homo sapiens, UniProt P42345); test: Inhibition of mTOR (unknown origin) by Kinase-Glo plus luminescence kinase assay or and ADP-Glo Plus luminescence kinase assay
[2] = molecular target: Phosphatidylinositol 4,5-bisphosphate 3-kinase catalytic subunit alpha isoform (Homo sapiens, UniProt P42336); test: Inhibition of PI3Kalpha (unknown origin) using lipid substrate by Kinase-Glo plus luminescence kinase assay or and ADP-Glo Plus luminescence kinase assay
A2780 = test: cells; details: Homo sapiens, A2780, 72 h
Description: Antiproliferative activity against human A2780 cells incubated for 72 hrs by MTT assay

Phosphatidylinositol 4,5-bisphosphate 3-kinase catalytic subunit alpha isoform, sequence (P42336 whole entry, canonical isoform): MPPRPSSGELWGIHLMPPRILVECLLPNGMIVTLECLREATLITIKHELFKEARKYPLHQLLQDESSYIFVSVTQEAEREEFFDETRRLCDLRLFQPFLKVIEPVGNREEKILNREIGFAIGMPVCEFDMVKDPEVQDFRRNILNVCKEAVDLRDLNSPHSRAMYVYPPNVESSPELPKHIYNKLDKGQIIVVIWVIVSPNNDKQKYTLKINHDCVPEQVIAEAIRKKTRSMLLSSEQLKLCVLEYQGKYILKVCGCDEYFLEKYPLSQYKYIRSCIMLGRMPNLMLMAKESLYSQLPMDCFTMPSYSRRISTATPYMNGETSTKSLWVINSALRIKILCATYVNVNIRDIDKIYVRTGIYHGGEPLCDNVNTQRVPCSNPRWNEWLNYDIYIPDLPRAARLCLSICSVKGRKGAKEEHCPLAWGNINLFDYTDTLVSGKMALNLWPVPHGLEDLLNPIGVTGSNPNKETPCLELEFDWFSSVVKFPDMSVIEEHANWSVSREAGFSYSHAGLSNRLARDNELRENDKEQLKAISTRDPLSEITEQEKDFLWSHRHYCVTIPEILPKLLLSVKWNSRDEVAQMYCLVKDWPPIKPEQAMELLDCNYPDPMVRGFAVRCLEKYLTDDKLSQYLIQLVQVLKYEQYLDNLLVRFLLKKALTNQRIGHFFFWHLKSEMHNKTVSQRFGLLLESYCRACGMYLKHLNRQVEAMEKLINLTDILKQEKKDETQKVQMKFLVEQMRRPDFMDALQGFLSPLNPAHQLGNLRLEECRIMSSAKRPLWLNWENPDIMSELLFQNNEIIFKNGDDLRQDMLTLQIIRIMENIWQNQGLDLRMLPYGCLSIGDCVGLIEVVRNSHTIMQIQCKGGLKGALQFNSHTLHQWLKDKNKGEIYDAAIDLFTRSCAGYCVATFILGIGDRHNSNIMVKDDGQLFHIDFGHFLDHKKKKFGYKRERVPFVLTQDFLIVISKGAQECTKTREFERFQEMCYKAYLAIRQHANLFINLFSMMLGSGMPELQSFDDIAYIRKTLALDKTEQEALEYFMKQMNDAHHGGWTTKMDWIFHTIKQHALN

| SMILES | IC50 (MCF7) [nM] | IC50 [1] [nM] | IC50 [2] [nM] | IC50 (A2780) [nM] |
| --- | --- | --- | --- | --- |
| CCCn1cnc2c(N3CCOC[C@@H]3C)cc(-c3ccc(NC(=O)NCC)cc3)nc21 | 64 | 290 | > 10000 | 3110 |
| CCNC(=O)Nc1ccc(-c2cc(N3CCOC[C@@H]3C)c3nc(C)n(CC)c3n2)cc1 | 18 | 330 to 332 | > 10000 | 2710 |
| CCNC(=O)Nc1ccc(-c2nc3c(c(N4CCOC[C@@H]4C)n2)CCN(C2COC2)C3)cc1 [RG-7603] | 5.8 | 39 | 4200 | 330 |
